Measurements as given in patent US9464060B2, “Compounds” (TAKEDA PHARMACEUTICAL COMPANY LIMITED, priority 2013, dated 2016).
Where a name gives a salt, the structure may show the parent alone.

What was measured:
LPA5 receptor [1] = biological target: T1, LPA5 receptor (Homo sapiens (Human), UniProt Q9H1C0); details: reported, cited from earlier work
LPA5 receptor [2] = biological target: T1, LPA5 receptor; experiment: In vitro LPA5 receptor assay (LPA-driven intracellular calcium release, FLIPR); assay type: cell-based; details: RH7777 cells expressing human LPA5 receptors; LPA at EC90
Description: In Vitro LPA5 Receptor Assay
(§1) Engagement of the LPA5 receptor by its ligand, oleoyl-L-α-lysophosphatidic acid (LPA), leads to the release of intracellular stores of calcium into the cytoplasm mediated through a Gq-driven increase in inositol triphosphate (IP3) levels. Gq is a heterotrimeric G protein subunit that activates phospholipase C.
The ability of test compounds to prevent LPA-driven intracellular release of stored calcium from RH7777 cells expressing human LPA5 receptors was assayed by stimulating the cells with LPA in the presence of various test compounds to measure the test compounds'antagonism, i.e. activity in vitro.
(§2) Approximately 10,000 cells in normal culture medium (Minimal Essential Media, 10% Foetal Calf Serum) were dispensed per assay well in a black clear bottom poly-D-lysine coated 384 well plate (Corning). Cells were allowed to settle for thirty minutes at room temperature before being incubated overnight at 37° C., 5% CO2. Sixteen to twenty hours after dispensing, the cells were loaded with a calcium-sensitive fluorescent dye by replacing the culture medium with assay buffer (1× Hanks buffered saline, 25 mM HEPES, 0.1% w/v fatty acid free BSA (bovine serum albumin), pH7.4) containing 1.25 mM probenecid and 1× Calcium 5 Reagent (Molecular Devices). Cells were incubated at 37° C. for one hour to allow for dye uptake.
(§3) To test for antagonist activity, test compounds at a final concentration range between 0.32 nM-10 μM (diluted in assay buffer) were added to the assay wells and allowed to incubate for fifteen minutes. […] Ligand-dependent changes in intracellular calcium levels were determined by measuring changes in fluorescence of the dye over […] following excitation over […].

LPA5 receptor [3] = experiment: In vivo farnesyl pyrophosphate-induced hyperalgesia model (Randall-Selitto); details: rat, FPP-induced hyperalgesia
Description: In Vivo Farnesyl Pyrophosphate-Induced Inflammatory Model
The FPP-induced hyperalgesia model is a pharmacodynamic rat model which involves inducing pain by injecting FPP, an agonist of LPA5 receptor, into the plantar surface of the hindpaw.
Withdrawal responses were reassessed at 30 and 90 minutes after injection of FPP in the ipsilateral paw.

human LPA1 receptors = human LPA1 receptors (Homo sapiens (Human), UniProt Q92633); experiment: In vitro LPA1 receptor assay (LPA-driven intracellular calcium release, FLIPR); assay type: cell-based; details: RH7777 cells expressing human LPA1 receptors; LPA at EC80
human LPA1 receptors, sequence (Q92633 whole entry): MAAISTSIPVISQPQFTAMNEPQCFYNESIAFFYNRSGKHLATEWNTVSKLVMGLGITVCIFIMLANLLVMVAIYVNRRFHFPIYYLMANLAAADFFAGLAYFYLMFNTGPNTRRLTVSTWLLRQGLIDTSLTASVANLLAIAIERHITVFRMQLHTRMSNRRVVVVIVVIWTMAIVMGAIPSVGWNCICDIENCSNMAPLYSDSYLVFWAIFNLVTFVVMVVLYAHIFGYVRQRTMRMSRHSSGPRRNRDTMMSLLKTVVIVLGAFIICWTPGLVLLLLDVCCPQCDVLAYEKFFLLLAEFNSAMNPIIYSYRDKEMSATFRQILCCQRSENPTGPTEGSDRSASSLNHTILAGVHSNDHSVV
Description: In Vitro LPA1 Receptor Assay
as §1, with “LPA1” for “LPA5”
The ability of test compounds to prevent LPA-driven intracellular release of stored calcium from RH7777 cells expressing human LPA1 receptors was assayed by stimulating the cells with LPA in the presence of various test compounds to measure the test compounds' antagonism, i.e. activity in vitro.
as §2, with “(Dulbecco's Modified Eagle” for “(Minimal Essential”, “collagen” for “poly-D-lysine”, “(Beckton Dickinson).” for “(Corning).”
as §3, with “twenty five” for “fifteen”

[4] = In vivo bleomycin induced scleroderma model; set-up: species or system C57BL/6 mice; details: mice, bleomycin i.d.
Description: In Vivo Bleomycin Induced Scleroderma Model Experimental Outline
Adult male C57BL/6 mice, aged 8-10 weeks, were assigned to groups and allowed to acclimatise for a week. On Day −1, the back skin of the animals was shaved. From Day 0, animals were administered with 100 μl of a 1 mg/ml solution of bleomycin sulphate in phosphate buffered saline (PBS) by intradermal injection in the shaved skin. Injections were repeated in a one square centimeter area every other day for four weeks. A group of ten animals (Control group) was injected with an identical volume of PBS. Animals were weighed at the beginning of the experiment on Day 0 and then twice weekly throughout the study. At the end of the experiment, on Day 28, animals were culled and samples of back skin were taken for further analysis. All groups were n=10; the vehicle was distilled water and the administration volume was 10 ml/kg for oral gavage (p.o.); administration volume was 25 μl for topical application.
Bodyweights were graphed along with the standard error of the mean (SEM); Skin samples (two punch biopsies per animal, 4 mm in diameter each) samples were hydrolyzed and hydroxyproline content of the samples was determined from analysis in a semi-automated process using a continuous flow analyzer. Autoanalyser readings were calibrated against hydroxyproline standards and collagen content calculated. […] Bleomycin administration induced a highly significant increase in skin collagen content when compared to the control, saline-injected, group (p<0.01).

T1 sequence (Q9H1C0 whole entry): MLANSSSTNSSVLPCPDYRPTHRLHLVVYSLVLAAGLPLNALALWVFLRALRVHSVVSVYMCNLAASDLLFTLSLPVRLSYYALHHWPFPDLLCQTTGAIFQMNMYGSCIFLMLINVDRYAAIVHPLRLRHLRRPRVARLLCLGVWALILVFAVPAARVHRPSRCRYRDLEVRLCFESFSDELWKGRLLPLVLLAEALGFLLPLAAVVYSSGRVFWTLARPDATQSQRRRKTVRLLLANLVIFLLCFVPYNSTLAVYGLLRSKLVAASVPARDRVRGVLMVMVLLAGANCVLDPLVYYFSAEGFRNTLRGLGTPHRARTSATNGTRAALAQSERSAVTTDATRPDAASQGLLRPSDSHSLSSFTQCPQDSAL

Row | SMILES | IC50 (LPA5 receptor [2]) | IC50 (human LPA1 receptors) | also measured
1 | CC(C)=CCC/C(C)=C/CC/C(C)=C/COP(=O)(O)OP(=O)(O)O [Farnesyl pyrophosphate] |  |  | EC50 (LPA5 receptor [1]; LPA5 receptor, read-out: in-vitro EC50): 49 nM; selectivity over other LPA receptors (LPA5 receptor [1]): 3 fold
2 | O=C(O)c1ccc(CN(Cc2ccccc2)C(=O)c2ccc(Oc3ccccc3F)cc2)cc1 [Example 11, 4-((N-Benzyl-4-(2-fluorophenoxy)benzamido)methyl)benzoic acid] | 6 nM | 6 nM | In vivo efficacy (minimum effective dose (MED) mg/kg) (LPA5 receptor [3]; route po): ≦10 mg/kg
3 | C[C@H]1C[C@H]2[C@@H]3CCC4=CC(=O)C=C[C@]4(C)[C@@]3(F)[C@@H](O)C[C@]2(C)[C@@]1(O)C(=O)CO [Betamethasone, reference compound] |  |  | skin collagen content compared to the vehicle-treated group ([4]; treatment from Day 0 to Day 28): non-significant reduction
4 | Cc1cccc(F)c1Oc1ccc(C(=O)N(Cc2ccc(C(=O)O)cc2)CC2CC2)cc1 [Example 40, 4-((N-(Cyclopropylmethyl)-4-(2-fluoro-6-methylphenoxy)-benzamido)methyl)benzoic acid] | 31 nM | 160 nM | In vivo efficacy (minimum effective dose (MED) (LPA5 receptor [3]; route po): 60 mg/kg
5 | Cc1ccc(NC(=O)c2ccc(CN3CCN(C)CC3)cc2)cc1Nc1nccc(-c2cccnc2)n1 [Imatinib, Imatinib mesylate, reference compound] |  |  | skin collagen content compared to the vehicle-treated group ([4]; treatment from Day 0 to Day 28): non-significant reduction
6 | COc1ccccc1Oc1ccc(C(=O)N(Cc2ccc(C(=O)O)cc2)CC(F)(F)F)cc1 [Example 61, 4-((4-(2-Methoxyphenoxy)-N-(2,2,2-trifluoroethyl)benzamido)methyl)benzoic acid] | 8 nM | 4 nM | 
7 | O=C(O)c1ccc(CN(C[C@H](O)Cc2ccccc2)C(=O)c2ccc(Oc3ccccc3F)cc2)cc1 [Example 20, (R)-4-((4-(2-Fluorophenoxy)-N-(2-hydroxy-3-phenylpropyl)-benzamido)methyl)benzoic acid] | 40 nM | 12 nM | 
8 | CCCCN(Cc1ccc(C(=O)O)cc1)C(=O)c1ccc(Oc2ccccc2OC)cc1 [Example 65, 4-((N-Butyl-4-(2-methoxyphenoxy)benzamido)methyl)benzoic acid] | 4 nM | 5 nM | 
9 | COc1cc(F)ccc1Oc1ccc(C(=O)N(Cc2ccc(C(=O)O)cc2)CC2CC2)cc1 [Example 68, 4-((N-(Cyclopropylmethyl)-4-(4-fluoro-2-methoxyphenoxy)benzamido)methyl)benzoic acid] | 10 nM | 13 nM | 
10 | Cc1cccc(C)c1Oc1ccc(C(=O)N(CCC(C)C)Cc2ccc(C(=O)O)cc2)cc1 [Example 45, 4-((4-(2,6-Dimethylphenoxy)-N-isopentylbenzamido)methyl)benzoic acid] | 99 nM | 75 nM | 
11 | COc1ccccc1Oc1ccc(C(=O)N(Cc2ccc(C(=O)O)cc2)CC2CC2)c(F)c1 [Example 66, 4-((N-(Cyclopropylmethyl)-2-fluoro-4-(2-methoxyphenoxy)benzamido)methyl)benzoic acid] | 5 nM | 7 nM | 
12 | Cc1ccccc1Oc1ccc(C(=O)N(Cc2ccccc2)Cc2ccc(C(=O)O)cc2)cc1 [Example 24, 4-((N-Benzyl-4-(o-tolyloxy)benzamido)methyl)benzoic acid] | 7 nM | 11 nM | In vivo efficacy (minimum effective dose (MED) (LPA5 receptor [3]; route po): 30 mg/kg
13 | CCCN(Cc1ccc(C(=O)O)cc1)C(=O)c1ncc(Oc2ccccc2OC)cn1 [Example 85, 4-((5-(2-Methoxyphenoxy)-N-propylpyrimidine-2-carboxamido)methyl)benzoic acid] | 120 nM | 180 nM | 
14 | COc1cccc(F)c1Oc1ccc(C(=O)N(Cc2ccc(C(=O)O)cc2)CC2CC2)cc1 [Example 67, 4-((N-(Cyclopropylmethyl)-4-(2-fluoro-6-methoxyphenoxy)benzamido)methyl)benzoic acid] | 5 nM | 7 nM | 

The next lines start with results.

Row | IC50 (LPA5 receptor [2]) | IC50 (human LPA1 receptors) | SMILES | also measured
15 | 32 nM | 46 nM | CC(C)CCN(Cc1ccc(C(=O)O)cc1)C(=O)c1ccc(Oc2ccccc2F)cc1 [Example 8, 4-((4-(2-Fluorophenoxy)-N-isopentylbenzamido)methyl)benzoic acid] | In vivo efficacy (minimum effective dose (MED) (LPA5 receptor [3]; route po): 100 mg/kg
16 | 16 nM | 46 nM | O=C(O)c1ccc(CN(CC2CC2)C(=O)c2ccc(Oc3ccccc3F)cc2)cc1 [Example 5, 4-((N-(Cyclopropylmethyl)-4-(2-fluorophenoxy)benzamido)-methyl)benzoic acid] | bodyweight loss compared to the vehicle-treated group ([4]; 30 mg/kg p.o. BID): did not differ; skin collagen content compared to the vehicle-treated group ([4]; treatment from Day 0 to Day 28): significant reduction; skin collagen content compared to the vehicle-treated group ([4]; treatment from Day 14 to Day 28, 30 mg/kg p.o. BID): significant reduction
17 | 63 nM | 49 nM | CC(C)CN(Cc1ccc(C(=O)O)cc1)C(=O)c1ccc(Oc2ccccc2F)cc1 [Example 4, 4-((4-(2-Fluorophenoxy)-N-isobutylbenzamido)methyl)benzoic acid] | In vivo efficacy (minimum effective dose (MED) (LPA5 receptor [3]; route ip): 1 mg/kg; In vivo efficacy (minimum effective dose (MED) mg/kg) (LPA5 receptor [3]; route po): ≦10 mg/kg
18 | 83 nM | 59 nM | O=C(O)c1ccc(CN(CCC(F)(F)F)C(=O)c2ccc(Oc3ccccc3F)cc2)cc1 [Example 71, 4-((4-(2-Fluorophenoxy)-N-(3,3,3-trifluoropropyl)benzamido)methyl)benzoic acid] | 
19 | 43 nM | 34 nM | COc1ccccc1Oc1ccc(C(=O)N(Cc2ccc(C(=O)O)cc2)CC(F)F)cc1 [Example 29, 4-((N-(2,2-Difluoroethyl)-4-(2-methoxyphenoxy)benzamido)-methyl)benzoic acid] | 
20 | 98 nM | 40 nM | CC(F)(F)CN(Cc1ccc(C(=O)O)cc1)C(=O)c1ccc(Oc2ccccc2F)cc1 [Example 74, 4-((N-(2,2-Difluoropropyl)-4-(2-fluorophenoxy)benzamido)methyl)benzoic acid] | 
